Source: patent publication US20250154163A1, “Pyrimidinone-Containing 17-Beta-Hydroxysteroid Dehydrogenase Type 13 Inhibitors” (ENANTA PHARMACEUTICALS, INC., priority 2023, published 2025)
Structures can show the parent of a compound that is named as a salt.

Assays:
[1] = molecular target: T1, Recombinant human 17β-HSD13 (Homo sapiens, UniProt Q7Z5P4); assay: 17β-HSD13 rapid-fire mass spectrometry assay (RF/MS assay); type: biochemical; conditions: inhibition of 17β-HSD13, RF/MS assay; HSD17B13 80 nM, LTB4 10 μM, NAD+ 0.5 mM, RT 3 h
T1 construct: host or cells: Sf9 insect cells
T1 sequence (Q7Z5P4 20-300): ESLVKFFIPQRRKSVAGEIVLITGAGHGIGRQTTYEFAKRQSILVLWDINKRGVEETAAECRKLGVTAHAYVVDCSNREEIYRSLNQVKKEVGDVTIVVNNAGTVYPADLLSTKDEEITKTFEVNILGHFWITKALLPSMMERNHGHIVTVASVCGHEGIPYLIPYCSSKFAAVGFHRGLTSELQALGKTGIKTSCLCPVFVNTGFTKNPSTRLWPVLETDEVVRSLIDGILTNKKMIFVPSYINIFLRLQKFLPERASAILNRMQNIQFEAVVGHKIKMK
Text: 17(3-HSD13 rapid-fire mass spectrometry assay (RF/MS assay). Recombinant human 17β-HSD13 was expressed and purified from sf9 cells at Charles River Labs (Saffron Walden, UK). Leukotriene B4 (Catalog #71160-24-2) and 12-oxoleukotriene B4 (Catalog #20140) were purchased from Cayman Chemicals (Ann Arbor, MI). NAD+ (Catalog #N8285), BSA (Catalog #A7030), DMSO (Catalog #D2650), and Tween-20 (Catalog #11332465001) were purchased from Sigma (St. Louis, MO). Formic acid (Catalog #28905) was from ThermoFisher Scientific and 384 deep well PP microplates (Catalog #784261) were from Greiner Bio-One. In a typical IC50 assay performed in a 384w PP microplate, test compounds (0-100 μM) were incubated with HSD17B13 (80 nM), LTB4 (10 μM), and NAD^+ (0.5 mM) in 10 μL assay buffer (20 mM Tris (pH 7.5), BSA (0.005%), and Tween-20 (0.01%)) at RT for 3 h. The assays were quenched by adding 20 μL of 0.15% aqueous formic acid and the plates were frozen at −80° C. RF/MS analysis was performed at PureHoney Technologies (Billerica, MA) on a RapidFire RF300 system (Agilent Technologies, Inc.) coupled to an API 4000 triple quadrupole mass spectrometer (Sciex) equipped with Agilent RapidFire cartridge type A (C4). The mobile phase was 0.09% formic acid and 0.01% trifluoracetic acid in water (Buffer A) and 0.09% formic acid and 0.01% trifluoracetic acid in 80% aqueous acetonitrile (Buffer B). The RapidFire method conditions were the following: 250 ms aspirate, 3000 ms load/desalt, 4000 ms elute, and 500 ms re-equilibrate. RF-MS/MS was performed in negative polarity (−4500 V), the source temperature was 650° C., and gas 1 and gas 2 settings for nitrogen were set to 50. The curtain gas and collision gas were also nitrogen and were set to 20 and 12, respectively. Leukotriene B4 (335.3) and 12-oxoLeukotriene B4 (333.3) SRM transitions were optimized with Discovery Quant software and extracted ion counts for these analytes were determined.
Data Analysis. 17β-HSD13 enzyme activity was measured as percent conversion of extracted ion counts and normalized to high and low controls to determine percent residual activity at various concentrations of test compounds. Data was fitted to normalized activity (variable slope) versus concentration fit in GraphPad Prism 7 to determine IC50. All experiments were run in duplicates.
By using the above method, the inhibition of 17β-HSD13 was evaluated for the compounds of Formula (I). IC50 ranges are as follows: A is <0.1 μM; B is 0.1 μM-1.0 μM; C is 1.0 μM-10 μm; and D is >10 μM.

[2] = molecular target: T2, human HSD17β13 (stable HEK293T cell line overexpressing human HSD17β13) (Homo sapiens, UniProt Q7Z5P4); assay: HSD17β13 inhibitor cell-based screening assay (conversion of estradiol-d2 to estrone-d2 by RF-MS); conditions: conversion of estradiol-d2 to estrone-d2 after 24 hours
T2 construct: expressed in transfected cells
T2 sequence (Q7Z5P4 20-300): T1 sequence (Q7Z5P4 20-300)
Outline: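 Cellular IC50 is based on 24-h conversion of estradiol-d2 (5 μM final) to estrone-d2, measured by RF-MS in acetonitrile-precipitated supernatants. Assay uses human HSD17β13-overexpressing HEK293T cells (7.5E3/well, 1% charcoal/dextran FBS MEM), with compounds dosed as a 9-point 1:3 series to 10 μM final. ATPlite luminescence on overexpressing and parent lines measured viability.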

IC50 [1]	IC50 [2]	SMILES
< 0.1 µM	< 0.1 µM	O=c1c2c(nc(-c3cc(C(F)(F)F)c(Cl)cc3C3CC3)n1Cc1cnco1)sc1c(O)c(Cl)ccc12 [Example 79]
0.1 to 1 µM	< 0.1 µM	COc1cc(C2CC2)c(-c2nc3sc4c(O)c(Cl)ccc4c3c(=O)n2Cc2cnco2)cc1C(F)(F)F [Example 78]
< 0.1 µM	< 0.1 µM	COc1cc(-c2nc3sc4c(O)c(Cl)ccc4c3c(=O)n2Cc2cnco2)c(C2CC2)cc1F [Example 82, 7-chloro-2-(2-cyclopropyl-4-fluoro-5-methoxyphenyl)-8-hydroxy-3-(oxazol-5-ylmethyl)benzo[4,5]thieno[2,3-d]pyrimidin-4(3H)-one]
< 0.1 µM	< 0.1 µM	O=c1c2c(nc(-c3ccc(C(F)F)cc3C3CC3)n1Cc1cc(C(F)(F)F)no1)sc1c(O)c(Cl)ccc12 [Example 171]
< 0.1 µM	< 0.1 µM	O=c1c2c(nc(-c3ccc(F)c(F)c3C3CC3)n1Cc1cnco1)sc1c(O)c(Cl)ccc12 [Example 132]
< 0.1 µM	< 0.1 µM	O=c1c2c(nc(-c3ccc(C(F)(F)F)cc3C3CC3)n1Cc1cnco1)sc1c(O)c(Cl)ccc12 [Example 135]
< 0.1 µM	< 0.1 µM	COc1ccc(-c2nc3sc4c(O)c(Cl)ccc4c3c(=O)n2Cc2cncs2)c(C2CC2)c1 [Example 190]
< 0.1 µM	< 0.1 µM	COc1ccc(C2CC2)c(-c2nc3sc4c(O)c(Cl)ccc4c3c(=O)n2Cc2cnco2)c1 [Example 83]
< 0.1 µM	< 0.1 µM	O=c1c2c(nc(-c3cc(OC(F)(F)F)ccc3C3CC3)n1Cc1cnco1)sc1c(O)c(Cl)ccc12 [Example 143]
< 0.1 µM	< 0.1 µM	Cn1cc(Cn2c(-c3cc(F)c(F)cc3C3CC3)nc3sc4c(O)c(Cl)ccc4c3c2=O)ccc1=O [Example 174]
< 0.1 µM	< 0.1 µM	COc1ccc(-c2nc3sc4c(O)c(Cl)ccc4c3c(=O)n2Cc2cnn(C)c2)c(C2CC2)c1 [Example 86]
< 0.1 µM	< 0.1 µM	O=c1c2c(nc(-c3cc(F)c(C(F)F)cc3C3CC3)n1Cc1cnc(C(F)(F)F)nc1)sc1c(O)c(Cl)ccc12 [Example 176]

Continued, molecule first:

SMILES	IC50 [1]	IC50 [2]
COc1ccc(-c2nc3sc4c(C(F)F)cccc4c3c(=O)n2Cc2cnco2)c(C2CC2)c1 [Example 16, 2-(2-cyclopropyl-4-methoxyphenyl)-8-(difluoromethyl)-3-(oxazol-5-ylmethyl)benzo[4,5]thieno[2,3-d]pyrimidin-4(3H)-one]	> 10 µM	1 to 100 µM
CS(=O)(=O)c1ccc(-c2nc3sc4c(O)c(F)ccc4c3c(=O)n2Cc2cnc(C(F)(F)F)nc2)c(C2CC2)c1 [Example 71, 2-(2-cyclopropyl-4-(methylsulfonyl)phenyl)-7-fluoro-8-hydroxy-3-((2-(trifluoromethyl)pyrimidin-5-yl)methyl)benzo[4,5]thieno[2,3-d]pyrimidin-4(3H)-one]	< 0.1 µM	< 0.1 µM
COc1ccc(-c2nc3sc4c(ccc5[nH]c(=O)oc54)c3c(=O)n2Cc2cnco2)c(C2CC2)c1 [Example 29, 8-(2-cyclopropyl-4-methoxyphenyl)-7-(oxazol-5-ylmethyl)-3,7-dihydrooxazolo[5″,4″:3′,4′]benzo[1′,2′:4,5]thieno[2,3-d]pyrimidine-2,6-dione]	> 10 µM	0.5 to 1 µM
COc1ccc(-c2nc3sc4c(N(C(C)=O)C(C)=O)cccc4c3c(=O)n2Cc2cnco2)c(C2CC2)c1 [Example 5, N-acetyl-N-(2-(2-cyclopropyl-4-methoxyphenyl)-3-(oxazol-5-ylmethyl)-4-oxo-3,4-dihydrobenzo[4,5]thieno[2,3-d]pyrimidin-8-yl)acetamide]	> 10 µM	1 to 100 µM
O=c1c2c(nc(-c3ccc(F)cc3C3CC3)n1Cc1cc(C(F)(F)F)no1)sc1c(O)c(Cl)ccc12 [Example 40, 7-chloro-2-(2-cyclopropyl-4-fluorophenyl)-8-hydroxy-3-((3-(trifluoromethyl)isoxazol-5-yl)methyl)benzo[4,5]thieno[2,3-d]pyrimidin-4(3H)-one]	< 0.1 µM	< 0.1 µM
C=CCc1ccc2c(sc3nc(-c4ccc(OC)cc4C4CC4)n(Cc4cnco4)c(=O)c32)c1O [Example 21, 7-allyl-2-(2-cyclopropyl-4-methoxyphenyl)-8-hydroxy-3-(oxazol-5-ylmethyl)benzo[4,5]thieno[2,3-d]pyrimidin-4(3H)-one]	0.1 to 1 µM	1 to 100 µM
COc1ccc(-c2nc3sc4c(NC(C)=O)cccc4c3c(=O)n2Cc2cnco2)c(C2CC2)c1 [Example 4, N-(2-(2-cyclopropyl-4-methoxyphenyl)-3-(oxazol-5-ylmethyl)-4-oxo-3,4-dihydrobenzo[4,5]thieno[2,3-d]pyrimidin-8-yl)acetamide]	> 10 µM	1 to 100 µM
COc1ccc(-c2nc3sc4c(OS(=O)(=O)O)cccc4c3c(=O)n2Cc2cnco2)c(C2CC2)c1 [Example 23, 2-(2-cyclopropyl-4-methoxyphenyl)-3-(oxazol-5-ylmethyl)-4-oxo-3,4-dihydrobenzo[4,5]thieno[2,3-d]pyrimidin-8-yl hydrogen sulfate]	0.1 to 1 µM	1 to 100 µM
COc1ccc(-c2nc3sc4c(OC)cccc4c3c(=O)n2Cc2cnco2)c(C2CC2)c1 [Example 8, 2-(2-cyclopropyl-4-methoxyphenyl)-8-methoxy-3-(oxazol-5-ylmethyl)benzo[4,5]thieno[2,3-d]pyrimidin-4(3H)-one]	> 10 µM	1 to 100 µM
Cc1cc(Cn2c(-c3ccc(F)cc3C3CC3)nc3sc4c(O)c(Cl)ccc4c3c2=O)on1 [Example 43, 7-chloro-2-(2-cyclopropyl-4-fluorophenyl)-8-hydroxy-3-((3-methylisoxazol-5-yl)methyl)benzo[4,5]thieno[2,3-d]pyrimidin-4(3H)-one]	< 0.1 µM	< 0.1 µM
O=c1c2c(nc(-c3cc(F)c(F)cc3C3CC3)n1Cc1cc(C(F)(F)F)on1)sc1c(O)c(Cl)ccc12 [Example 66, 7-chloro-2-(2-cyclopropyl-4,5-difluorophenyl)-8-hydroxy-3-((5-(trifluoromethyl)isoxazol-3-yl)methyl)benzo[4,5]thieno[2,3-d]pyrimidin-4(3H)-one]	< 0.1 µM	< 0.1 µM
COc1ccc(-c2nc3sc4c(O)c(Cl)cc(Cl)c4c3c(=O)n2Cc2cnco2)c(C2CC2)c1 [Example 18, 5,7-dichloro-2-(2-cyclopropyl-4-methoxyphenyl)-8-hydroxy-3-(oxazol-5-ylmethyl)benzo[4,5]thieno[2,3-d]pyrimidin-4(3H)-one]	0.1 to 1 µM	0.1 to 0.5 µM
COc1ccc(-c2nc3sc4c(C=O)cccc4c3c(=O)n2Cc2cnco2)c(C2CC2)c1 [Example 15, 2-(2-cyclopropyl-4-methoxyphenyl)-3-(oxazol-5-ylmethyl)-4-oxo-3,4-dihydrobenzo[4,5]thieno[2,3-d]pyrimidine-8-carbaldehyde]	> 10 µM	1 to 100 µM
COc1ccc(-c2nc3sc4c(N)cccc4c3c(=O)n2Cc2cnco2)c(C2CC2)c1 [Example 6, 8-amino-2-(2-cyclopropyl-4-methoxyphenyl)-3-(oxazol-5-ylmethyl)benzo[4,5]thieno[2,3-d]pyrimidin-4(3H)-one]	> 10 µM	1 to 100 µM
